# Source: patent US20120027812A1, “INTRAOCULAR LENSES TREATED WITH ALKYLPHOSPHOCHOLINES FOR PHARMACOLOGICAL AFTERCATARACT PROPHYLAXIS” (priority 2009, published 2012)
# Legend:
# [1] = test system: human lens epithelial cells; experiment: APC-coated intraocular lens laid on cultured lens epithelial cells (Example 3, FIG. 6 and 7); type: cell-based; conditions: as coating on IOLs of hydrophobic acrylates, hydrophilic acrylates and silicones; MTT
# Description: A tetrazolium reduction assay [MTT (3-[4,5-dimethylthiazol-2-yl]-2,5-diphenyltetrazolium bromide] (Sigma-Aldrich) was carried out to determine the cell count. The intraocular lenses were removed, the cells were washed with PBS and incubated with the MTT reagent for 1 hour at 37° C. Only vital cells metabolise the solution. Subsequently, the cell membrane was dissolved with DMSO (dimethylsulphoxide) and the optical thickness was measured in the ELISA reader at 550 nm. In this case, the optical thickness correlates with the number of proliferating cells.
# The intraocular lenses coated with alkylphosphocholines are introduced into a cell culture volume of 500 μl, which corresponds to the volume of the human lens capsular bag in which the intraocular lenses are implanted in the human cataract operation. Moreover, the coated intraocular lenses in vitro are introduced into a cell culture with human lens epithelial cells which are already proliferating. […]
# Effectiveness of an Intraocular Lens Coated with APCs in the Prophylaxis of Aftercataract Intraocular lenses are coated with APC, as explained in Example 1,m and kept sterile at room temperature. […] After 3, 5 and 7 days, the lenses are removed and the cell count of the cells left in the cell culture dishes are determined, as described in 2.1, by cell counters and by the MTT test. […]
# [2] = test system: rat retina; conditions: clinically administered doses (4 mg/ml); cited from earlier work
# [3] = test system: rat retina; experiment: Functional analysis on retina ex vivo (electroretinogram); conditions: concentration of up to 25 μM in the total solution
# [4] = Stability of the coating to washing with physiological saline solution; type: physicochemical; conditions: repeated washing or rinsing with physiological saline solution
# Text: 1.3 Stability of the coating 10 intraocular lenses were coated with erufosin, as described in example 1.2. The lenses were subsequently each separately transferred into new test tubes and subjected to four washing steps with physiological saline solution. In a further extraction step using methanol/acetonitrile (ratio 9:1), the erufosin adhering to the lenses was removed and determined by mass spectroscopy. The amount of erufosin determined was between […] per lens.
# [5] = test system: Müller glial cells and subretinal pigment epithelial cells; conditions: single intravitreal administration one day after induced retinal detachment; cited from earlier work
# [6] = test system: cat eyes (retina); experiment: Long-term tolerance after intravitreal administration in cat eyes; type: in vivo; conditions: 28 days after intravitreal administration
# [7] = test system: rat eyes (retina); conditions: seven days after a single injection into the vitreous body; cited from earlier work
smiles,measurement,setting,value
"CCCCCCCC/C=C\CCCCCCCCOP(=O)([O-])OCC[N+](C)(C)C [OIPC, oleylphosphocholine]",cell growth of lens epithelial cells which are already proliferating,[1],can inhibit the cell growth
C[C@]12C=CC(=O)C=C1CC[C@H]1[C@@H]3C[C@@H](O)[C@](O)(C(=O)CO)[C@@]3(C)C[C@H](O)[C@@]12F [triamcinolone],retinal toxicity on the retina ex vivo test subject,[2],retinal toxicity
"CCCCCCCC/C=C\CCCCCCCCCCCCOP(=O)([O-])OCCC[N+](C)(C)C [ErPC3, erucylphosphohomocholine]",changes in the electroretinogram,[3],did not produce any changes in the electroretinogram
same,removal of the coating from the lenses,[4],no noticeable removal
same,intraretinal proliferation of Müller glial cells and subretinal pigment epithelial cells,[5],significant inhibition
same,morphologically detectable toxic side-effects,[5],without morphologically detectable toxic side-effects
same,cell growth of lens epithelial cells which are already proliferating,[1],can inhibit the cell growth
"CCCCCCCC/C=C\CCCCCCCCCCCCOP(=O)([O-])OCC[N+](C)(C)C [ErPC, erucylphosphocholine]",retinal toxicity,[6],no sign of retinal toxicity
same,"damage to the retinal function (light and electron microscopy, ERG)",[7],no damage to the retinal function could be detected
